4 compounds from ChEMBL document CHEMBL5465560, “Selectivity Literature for EUbOPEN Chemogenomic Library” (2024) can be followed below.

For assay [1], the target named is Homeodomain-interacting protein kinase 3 (Homo sapiens, UniProt Q9H422). Kind of assay: Selectivity interaction (Kinase panel (Z-LYTE Assay)) EUB0001632a HIPK3. Particulars: at 10 µM.
Assay [2] deals with T1, Tyrosine-protein kinase Mer (Homo sapiens) (UniProt Q12866).
T1 sequence (whole entry): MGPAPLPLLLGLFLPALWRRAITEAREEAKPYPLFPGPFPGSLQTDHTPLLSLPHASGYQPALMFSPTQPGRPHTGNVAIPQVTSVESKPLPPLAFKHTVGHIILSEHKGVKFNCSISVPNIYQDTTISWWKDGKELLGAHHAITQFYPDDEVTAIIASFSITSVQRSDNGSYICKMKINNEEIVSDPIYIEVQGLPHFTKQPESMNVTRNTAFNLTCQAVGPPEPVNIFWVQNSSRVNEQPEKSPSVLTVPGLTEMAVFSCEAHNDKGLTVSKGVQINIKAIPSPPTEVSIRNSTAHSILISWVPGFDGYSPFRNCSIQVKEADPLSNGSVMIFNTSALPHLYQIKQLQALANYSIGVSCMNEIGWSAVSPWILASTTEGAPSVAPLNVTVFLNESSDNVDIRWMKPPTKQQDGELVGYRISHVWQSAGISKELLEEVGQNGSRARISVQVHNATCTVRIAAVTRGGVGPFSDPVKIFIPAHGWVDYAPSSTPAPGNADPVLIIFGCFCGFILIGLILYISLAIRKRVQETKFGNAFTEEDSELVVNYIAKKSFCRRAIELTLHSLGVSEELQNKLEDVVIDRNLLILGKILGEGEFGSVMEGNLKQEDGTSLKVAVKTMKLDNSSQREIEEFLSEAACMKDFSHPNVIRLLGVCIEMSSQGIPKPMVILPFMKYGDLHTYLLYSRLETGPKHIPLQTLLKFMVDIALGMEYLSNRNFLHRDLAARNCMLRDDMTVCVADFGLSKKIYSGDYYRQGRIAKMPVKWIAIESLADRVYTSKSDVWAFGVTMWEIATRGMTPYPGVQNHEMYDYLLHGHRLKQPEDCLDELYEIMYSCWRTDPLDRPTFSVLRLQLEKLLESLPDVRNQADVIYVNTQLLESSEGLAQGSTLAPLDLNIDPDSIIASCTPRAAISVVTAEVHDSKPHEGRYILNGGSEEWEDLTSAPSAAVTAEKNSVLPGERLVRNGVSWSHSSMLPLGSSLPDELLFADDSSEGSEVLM
Kind of assay: Selectivity interaction (LanthaScreen Eu Kinase Binding Assay) EUB0001632a MERTK. The note with it: at 10 µM. (TR-FRET usually uses a lanthanide donor and a delayed reading to cut background.)

Assay [3] addresses T2, Serine/threonine-protein kinase NLK (Homo sapiens) (UniProt Q9UBE8).
T2 sequence (whole entry): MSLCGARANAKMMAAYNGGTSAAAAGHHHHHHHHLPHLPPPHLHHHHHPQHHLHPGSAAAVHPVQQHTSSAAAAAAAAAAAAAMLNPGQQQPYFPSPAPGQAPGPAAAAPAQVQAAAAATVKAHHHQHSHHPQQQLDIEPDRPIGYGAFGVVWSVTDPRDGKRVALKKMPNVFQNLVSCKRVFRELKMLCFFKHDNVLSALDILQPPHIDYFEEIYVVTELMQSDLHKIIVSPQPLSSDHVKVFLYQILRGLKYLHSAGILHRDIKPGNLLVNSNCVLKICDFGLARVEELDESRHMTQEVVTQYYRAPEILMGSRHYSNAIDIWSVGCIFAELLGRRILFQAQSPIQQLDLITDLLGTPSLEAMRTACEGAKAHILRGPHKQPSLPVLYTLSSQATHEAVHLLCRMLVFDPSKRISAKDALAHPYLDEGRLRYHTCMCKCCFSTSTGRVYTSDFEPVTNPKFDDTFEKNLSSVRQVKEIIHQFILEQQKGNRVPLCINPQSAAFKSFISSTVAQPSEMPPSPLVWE
Particulars: at 10 µM.

The target of another assay is Cannabinoid receptor 1 (Homo sapiens, UniProt P21554). The assay can be described thus: Selectivity interaction (Panel of non-epigenetic targets (kinases, GPCRs, ion channels, and transporters, Eurofins) ) EUB0000271b CNR1. The note with it: at 1 µM.
Assay [4] concerns the target T3, Serine/threonine-protein kinase BRSK2 (Homo sapiens) (UniProt Q8IWQ3).
T3 sequence (whole entry): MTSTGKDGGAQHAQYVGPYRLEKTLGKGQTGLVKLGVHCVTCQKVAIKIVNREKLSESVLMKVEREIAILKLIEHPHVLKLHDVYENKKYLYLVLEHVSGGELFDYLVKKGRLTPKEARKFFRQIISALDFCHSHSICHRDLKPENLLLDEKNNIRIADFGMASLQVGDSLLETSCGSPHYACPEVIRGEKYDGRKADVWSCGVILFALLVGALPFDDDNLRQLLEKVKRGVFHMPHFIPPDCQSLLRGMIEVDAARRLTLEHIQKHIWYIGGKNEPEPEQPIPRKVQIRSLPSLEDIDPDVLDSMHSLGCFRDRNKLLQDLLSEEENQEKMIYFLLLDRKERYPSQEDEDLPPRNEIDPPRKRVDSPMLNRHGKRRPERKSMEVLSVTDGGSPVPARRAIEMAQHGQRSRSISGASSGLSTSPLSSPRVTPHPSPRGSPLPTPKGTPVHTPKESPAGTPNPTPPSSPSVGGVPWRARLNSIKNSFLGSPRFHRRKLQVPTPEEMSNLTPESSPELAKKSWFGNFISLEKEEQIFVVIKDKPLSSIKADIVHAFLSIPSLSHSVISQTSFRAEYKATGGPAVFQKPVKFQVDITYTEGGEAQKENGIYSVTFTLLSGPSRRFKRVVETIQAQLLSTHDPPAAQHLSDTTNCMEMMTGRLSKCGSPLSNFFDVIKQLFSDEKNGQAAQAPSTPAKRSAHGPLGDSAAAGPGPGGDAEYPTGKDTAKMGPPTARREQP
The assay can be described thus: Selectivity interaction (KinomeScan (DiscoverX)) EUB0001079a BRSK2. Particulars: at 1 µM.

Chain of Homeodomain-interacting protein kinase 3 (Q9H422 whole entry, looked up): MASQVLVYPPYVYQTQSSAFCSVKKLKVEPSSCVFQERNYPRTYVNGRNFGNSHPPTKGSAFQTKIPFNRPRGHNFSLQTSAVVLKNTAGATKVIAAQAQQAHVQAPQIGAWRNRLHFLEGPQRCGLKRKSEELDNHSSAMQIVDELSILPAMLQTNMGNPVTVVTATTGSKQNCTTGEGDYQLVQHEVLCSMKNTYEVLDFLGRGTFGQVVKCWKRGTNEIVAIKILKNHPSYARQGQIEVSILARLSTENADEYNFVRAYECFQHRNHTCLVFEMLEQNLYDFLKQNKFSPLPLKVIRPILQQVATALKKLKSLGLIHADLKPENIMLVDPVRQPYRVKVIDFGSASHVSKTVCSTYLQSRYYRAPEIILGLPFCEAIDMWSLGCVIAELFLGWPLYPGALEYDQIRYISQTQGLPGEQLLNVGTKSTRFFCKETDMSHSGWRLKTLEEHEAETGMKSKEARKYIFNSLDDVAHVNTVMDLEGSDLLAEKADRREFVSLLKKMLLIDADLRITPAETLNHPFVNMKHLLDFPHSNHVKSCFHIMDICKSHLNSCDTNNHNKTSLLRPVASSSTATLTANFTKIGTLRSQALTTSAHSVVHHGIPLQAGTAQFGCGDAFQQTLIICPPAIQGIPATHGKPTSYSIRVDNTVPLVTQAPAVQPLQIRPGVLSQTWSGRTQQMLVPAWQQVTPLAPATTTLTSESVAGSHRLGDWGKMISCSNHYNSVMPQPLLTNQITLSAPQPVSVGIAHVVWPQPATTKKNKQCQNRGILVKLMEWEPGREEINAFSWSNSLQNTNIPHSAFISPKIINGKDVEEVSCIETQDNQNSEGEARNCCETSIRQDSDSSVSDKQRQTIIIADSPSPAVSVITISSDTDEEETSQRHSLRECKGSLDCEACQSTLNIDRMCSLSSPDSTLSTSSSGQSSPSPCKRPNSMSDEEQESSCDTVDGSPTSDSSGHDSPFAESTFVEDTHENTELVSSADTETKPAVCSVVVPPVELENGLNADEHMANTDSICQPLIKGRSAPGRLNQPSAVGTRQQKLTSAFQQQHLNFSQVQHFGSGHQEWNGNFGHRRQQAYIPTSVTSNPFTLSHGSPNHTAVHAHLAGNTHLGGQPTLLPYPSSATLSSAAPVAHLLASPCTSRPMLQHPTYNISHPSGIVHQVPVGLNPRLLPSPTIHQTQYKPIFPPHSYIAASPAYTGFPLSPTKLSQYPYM
Chain of Cannabinoid receptor 1 (P21554 whole entry): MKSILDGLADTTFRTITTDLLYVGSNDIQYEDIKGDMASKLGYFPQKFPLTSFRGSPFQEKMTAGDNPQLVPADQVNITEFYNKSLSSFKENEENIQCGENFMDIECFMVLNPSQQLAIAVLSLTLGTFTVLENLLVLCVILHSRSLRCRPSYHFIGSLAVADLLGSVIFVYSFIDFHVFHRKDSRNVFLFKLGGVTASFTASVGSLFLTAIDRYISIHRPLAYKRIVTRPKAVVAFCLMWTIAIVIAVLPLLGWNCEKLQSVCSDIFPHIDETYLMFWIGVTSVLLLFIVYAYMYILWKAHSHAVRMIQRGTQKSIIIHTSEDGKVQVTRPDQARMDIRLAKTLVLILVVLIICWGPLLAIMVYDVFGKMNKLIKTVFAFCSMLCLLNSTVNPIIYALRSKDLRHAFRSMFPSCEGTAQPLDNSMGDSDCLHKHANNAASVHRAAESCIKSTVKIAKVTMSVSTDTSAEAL

`Cn1cc(-n2cnc3c(NCc4nc5cc(Cl)c(Cl)cc5[nH]4)nc(N4CCOCC4)nc32)cn1` came in with a % of control in assay [1] of 0.256%. Moreover, in assay [2], the % of inhibition is -48.1%. With `COCC(=O)NC/C=C/c1ccc2ncnc(Nc3ccc(Oc4ccc(C)nc4)c(C)c3)c2c1` [CP-724714], the % of control in assay [3] amounted to 100%. Regarding `Cc1cc(C)cc([C@@H]2c3cc(C)ccc3NC(=O)CN2C(=O)c2ccc(Br)s2)c1`, the % of inhibition at Cannabinoid receptor 1 was -20%. For `Nc1cnc(N2CCc3cc(S(=O)(=O)Nc4c(F)cc(Cl)cc4F)cc(N4CCCC4=O)c32)nc1` [TP-020n], in assay [4], the % of control was 80%.
